Data published in article PMC12524408 (International Journal of Molecular Sciences, 2025).

Legend:
DSS-induced colitis [1] = test: Dose-dependent study of intravenous PEG-AM in DSS-induced colitis (Study No. P170454); type: in vivo, mouse; details: 1, 5, 25 nmol/kg single i.v. one day before 3% DSS (MW 5000); vs vehicle; n = 10 per group
Procedure: We examined the effects of intravenous administration of PEG-AM on DSS-induced colitis, as per the experimental design in Figure 4a. PEG-AM was administered one day before DSS exposure to evaluate its prophylactic effect against colitis onset and progression.  Figure 4 Dose-dependent effects of intravenous PEG-AM administration in DSS-induced colitis (Study No. P170454). (a) Overview of the experimental design. Groups: vehicle (n = 10), PEG-AM 1 nmol/kg (n = 10), 5 nmol/kg (n = 10), 25 nmol/kg (n = 10). (b) Total inflammation scores on day 8. (c) Colon length. (d) Colon weight-to-length ratio. (e) PEG-AM plasma concentrations on day 8. To evaluate the pharmacological effects of PEG-AM, three animal studies were conducted by the LSI Medience Corporation following the Animal Welfare Act and institutional approval. Seven-week-old male C57BL/6J JCL mice (CLEA Japan, Inc., Tokyo, Japan) were used in all studies and were housed under pathogen-free conditions. Colitis was induced with 3% (w/v) DSS (MW 5000) in drinking water for seven days. PEG-AM (1.0, 5.0, and 25 nmol/kg) or saline (control) was administered intravenously one day before DSS treatment. Each group included 10 mice. Stool consistency, bleeding, and body weight were evaluated on days −1, 0, 3, 5, and 7. A total inflammation score was calculated. Mice were anesthetized with 3% isoflurane (Zoetis Japan, Tokyo, Japan), and the colon was excised on day 7.

DSS-induced colitis [2] = test: Effect of 25 nmol/kg PEG-AM in DSS-induced colitis (Study No. P180567); type: in vivo, mouse; details: 25 nmol/kg single i.v. one day before DSS, vs control, n = 20
From the text: The detailed rationale for this choice is provided in the Discussion. Two groups (control and treatment with 25 nmol/kg PEG-AM) were compared, each consisting of 20 animals.  Figure 5 Effect of 25 nmol/kg PEG-AM in DSS-induced colitis (Study No. P180567). (a) Overview of the experimental design. Groups: vehicle (n = 20), PEG-AM 25 nmol/kg (n = 20). (b) Total inflammation scores on day 8. ** p < 0.01, Mann–Whitney U test. (c) Bloody stool scores on day 8, *** p < 0.001, Mann–Whitney U test. (d) Colon length. (e) Colon weight-to-length ratio, ** p < 0.01, unpaired t-test. (f) PEG-AM plasma concentrations on day 8. (g–j) Fold changes in gene expression of RAMP1 (g), RAMP2 (h), RAMP3 (i), and CLR (j). * p < 0.05, unpaired t-test. To evaluate the pharmacological effects of PEG-AM, three animal studies were conducted by the LSI Medience Corporation following the Animal Welfare Act and institutional approval. Seven-week-old male C57BL/6J JCL mice (CLEA Japan, Inc., Tokyo, Japan) were used in all studies and were housed under pathogen-free conditions. Colitis was induced with 3% (w/v) DSS (MW 5000) in drinking water for seven days. PEG-AM (1.0, 5.0, and 25 nmol/kg) or saline (control) was administered intravenously one day before DSS treatment. Each group included 10 mice. Stool consistency, bleeding, and body weight were evaluated on days −1, 0, 3, 5, and 7. A total inflammation score was calculated. Mice were anesthetized with 3% isoflurane (Zoetis Japan, Tokyo, Japan), and the colon was excised on day 7. Following the protocol described in Section 4.6.1, this study was conducted to confirm the efficacy of 25 nmol/kg intravenous PEG-AM. Each treatment group consisted of 20 mice.

40 kDa PEGylated adrenomedullin [PEG-AM]
Colon length (DSS-induced colitis [1]): comparable across all groups | Colon weight per unit length (DSS-induced colitis [1]): no significant differences | Total inflammation score on day 8 (DSS-induced colitis [1]): no statistically significant differences | Bloody stool score on day 8 (DSS-induced colitis [2]; p = 0.0008, Mann-Whitney U test): significantly lower | Colon weight per unit length (DSS-induced colitis [2]; p = 0.0024, unpaired t-test): significantly lower | Total inflammation score on day 8 (DSS-induced colitis [2]; p = 0.0062, Mann-Whitney U test): significantly lower | Colon length (DSS-induced colitis [2]; p = 0.1429, unpaired t-test): not significantly different
